# Experimental data reported in article PMC9942557, “Bolaamphiphile Analogues of 12-bis-THA Cl2 Are Potent Antimicrobial Therapeutics with Distinct Mechanisms of Action against Bacterial, Mycobacterial, and Fungal Pathogens” (mSphere, 2022).
# Read-outs that look alike come from different tables or passages of the source.
# Assays:
# C. parapsilosis = assay: Broth microdilution MIC; format: cell-based
# C. albicans 3281 = assay: Broth microdilution MIC; format: cell-based, Candida albicans
# C. parapsilosis 3209 = assay: Broth microdilution MIC; format: cell-based
# C. albicans 3179 = assay: Broth microdilution MIC; format: cell-based, Candida albicans
# C. glabrata 8018 = assay: Broth microdilution MIC; format: cell-based
# C. krusei 3876 = assay: Broth microdilution MIC; format: cell-based
# C. tropicalis 8760 = assay: Broth microdilution MIC; format: cell-based
# C. auris temp probe = assay: Broth microdilution MIC; format: cell-based, Candida auris
# [1] = test system: Pseudomonas aeruginosa NCTC 13437; assay: Broth microdilution MIC; format: cell-based
# [2] = test system: VR Enterococcus faecalis NCTC 12201; assay: Broth microdilution MIC; format: cell-based; conditions: VR Enterococcus faecalis NCTC 12201
# [3] = test system: VR Enterococcus faecium NCTC 12204; assay: Broth microdilution MIC; format: cell-based; conditions: VR Enterococcus faecium NCTC 12204
# Klebsiella pneumoniae M6 = assay: Broth microdilution MIC; format: cell-based
# [4] = test system: EMR Staphylococcus aureus 16 NCTC 13277; assay: Broth microdilution MIC; format: cell-based; conditions: EMR Staphylococcus aureus 16 NCTC 13277
# [5] = test system: pBR322 plasmid, wheat germ topoisomerase I; assay: DNA unwinding assay; format: biochemical
# Protocol: A DNA unwinding assay kit (Inspiralis Limited, Norwich, UK) consists of wheat germ topoisomerase I assay buffer (50 mM Tris HCl [pH 7.9], 1 mM EDTA, 1 mM dithiothreitol [DTT], 20% [vol/vol] glycerol, 50 mM NaCl) dilution buffer (50 mM Tris HCl [pH 7.9], 1 mM EDTA, 1 mM DTT, 50% [vol/vol] glycerol, 500 mM NaCl), wheat germ topoisomerase I (5 U/μL), supercoiled plasmid pBR322 (1 μg/μL), and relaxed plasmid pBR322 (1 μg/μL). For the experiments, 2× DNA loading buffer containing 40% (wt/vol) sucrose, 100 mM Tris-HCl (pH 8), 1 mM EDTA, and 0.5 mg/mL bromophenol blue was prepared. The enzyme was diluted 1/5 with dilution buffer before being used in the assay. For the assay, 3 mM stock solutions in methanol of the compounds to be tested were prepared. An appropriate number of 1.5-mL Eppendorf tubes were filled with 25 μL of a mix consisting of assay buffer (15 μL of buffer per sample), supercoiled or relaxed pBR322 (0.5 μg/assay), and ultrapure water. In the first two tubes, 1 μL of methanol was added to test the effect of the solvent on both the plasmid and the enzyme. Subsequently, 1 μL of the test compounds was added to the remaining tubes, and the tubes briefly vortexed and incubated at room temperature for 5 min. After that, 2 μL of dilution buffer was added in the first tube, whereas 2 μL of enzyme diluted solution was added to the remaining tubes. The tubes were gently vortexed and incubated for 30 min at 37°C in a water bath. After this time, the reaction was stopped by adding 20 μL of water and 50 μL of water-saturated butanol to each tube. The tubes were vortexed and centrifuged for 1 min at 14,800 rpm. The lower aqueous layer of each tube was removed and transferred to a new tube containing 30 μL of chloroform-isoamyl alcohol (24/1) and 50 μL of loading buffer. The tubes were briefly vortexed and centrifuged for 1 min. Twenty microliters of the upper layer of each tube was loaded onto a 1% (wt/vol) agarose gel, and the gel was run at 80 V for approximately 4 h in Tris-acetate-EDTA buffer (40 mM Tris acetate and 1 mM EDTA). Subsequently, the gel was stained with ethidium bromide (1 μg/mL) for 15 min, briefly destained (5 to 10 min) in water, and visualized with a Multi-Doc Imaging M-26X UVP transilluminator.
# [6] = test system: Escherichia coli NCTC 12923; assay: Broth microdilution MIC; format: cell-based
# [7] = test system: Acinetobacter baumannii ATCC 17978; assay: Broth microdilution MIC; format: cell-based
# [8] = test system: VS Enterococcus faecalis NCTC 775; assay: Broth microdilution MIC; format: cell-based
# [9] = test system: Acinetobacter baumannii AYE; assay: Broth microdilution MIC; format: cell-based; conditions: Acinetobacter baumannii AYE
# [10] = test system: EMR Staphylococcus aureus 15 NCTC 13616; assay: Broth microdilution MIC; format: cell-based; conditions: EMR Staphylococcus aureus 15 NCTC 13616
# [11] = test system: Escherichia coli ATCC 25922; assay: Intrahemocoelic G. mellonella infection model; format: in vivo, Galleria mellonella; conditions: single 10-mg/kg dose 1 h after infection
# Protocol: The antimicrobial activities of DQC, CM2, and its analogues Quino-bola, Penta-bola, Hepta-bola, and Octa-bola against Escherichia coli ATCC 25922 were tested in Galleria mellonella larvae. All assays were performed on two separate occasions using a group size of 10 larvae; the larvae were kept in separate petri dishes and in a static incubator at 37°C during the period of the experiment. A suspension of E. coli ATCC 25922 was prepared by transferring two colonies of E. coli ATCC 25922 from a fresh agar plate into PBS and adjusting the absorbance to a McFarland 0.5 standard. The number of CFU per milliliter of this suspension was determined and corresponded to 1 × 10^8 CFU/mL. Larvae were injected beneath the tegument with 10 μL of a 1 × 10^7-CFU/mL bacteria suspension, corresponding to 1 × 10^5 CFU per larva. A 50-μL Hamilton syringe with a G27 needle was used for the injection. […] Ten microliters of stock solution was injected into each larva 1 h after infection (10 mg/kg). Levofloxacin (LVX; 50 μg/mL = 2 mg/kg) and PBS were used as positive and negative controls, respectively. A noninfected PBS injection was included to control for the effects of injection. Survival was monitored over a period of 70 to 72 h. Changes in G. mellonella survival were analyzed by the log rank (Mantel-Cox) method and plotted as Kaplan-Meier survival curves using GraphPad Prism version 7.
# [12] = test system: Pseudomonas aeruginosa PAO1; assay: Broth microdilution MIC; format: cell-based
# HEK293 = assay: In vitro toxicity for cell line; format: cell-based, human; conditions: HEK293; average ± standard error from 3 independent repeats
# Excerpt: (§1) TABLE 2 Toxicity of bolaamphiphiles for two cell lines^a | column: Toxicity (EC50 [μg/ml]) of: / 12-bis-THA Cl2; Toxicity (EC50 [μg/ml]) of: / Dequalinium; Toxicity (EC50 [μg/ml]) of: / Quino-bola; Toxicity (EC50 [μg/ml]) of: / Penta-bola; Toxicity (EC50 [μg/ml]) of: / Hepta-bola; Toxicity (EC50 [μg/ml]) of: / Octa-bola; Toxicity (EC50 [μg/ml]) of: / Octa-C10; Toxicity (EC50 [μg/ml]) of: / Octa-C8; Toxicity (EC50 [μg/ml]) of: / Octa-C6
# HeLa = assay: In vitro toxicity for cell line; format: cell-based, human; conditions: average ± standard error from 3 independent repeats
# Excerpt: as §1
# [13] = test system: Klebsiella pneumoniae NCTC 13368; assay: Broth microdilution MIC; format: cell-based
# P. aeruginosa PAO1 [14] = assay: Checkerboard synergy assay; format: cell-based, Pseudomonas aeruginosa
# P. aeruginosa PAO1 [15] = assay: Fixed-concentration (0.25× MIC bolalipid) synergy broth microdilution; format: cell-based, Pseudomonas aeruginosa; conditions: P. aeruginosa PAO1
# P. aeruginosa NCTC 13437 = assay: as above; format: cell-based, Pseudomonas aeruginosa; conditions: P. aeruginosa NCTC 13437
# M. smegmatis mc^2 155 = assay: Broth microdilution MIC (Middlebrook 7H9); format: cell-based, Mycobacterium smegmatis
# M. tuberculosis Bleupan [16] = assay: microbe, parasite or virus in culture; format: cell-based, Mycobacterium tuberculosis
# M. tuberculosis Bleupan [17] = format: in vivo, Galleria mellonella; conditions: in vivo
# [18] = Lodderomyces parapsilosis, read-out: MIC
# [19] = in the presence of 0.25× MIC Octa-bola (Table S1)
# [20] = in the presence of 0.25× MIC Octa-C10 (Table S1)
SMILES,MIC [1],MIC [2],MIC (C. parapsilosis),MIC (C. albicans 3281; C. albicans 3281),MIC [3],MIC (C. parapsilosis 3209),MIC (Klebsiella pneumoniae M6),MIC [4],MIC (C. albicans 3179; C. albicans 3179),MIC (C. glabrata 8018; C. glabrata 8018),MIC [6],MIC [7],MIC [8],MIC (C. krusei 3876),MIC [9],MIC (C. tropicalis 8760; C. tropicalis 8760),MIC (C. auris temp probe; C. auris temp probe),MIC [10],MIC [12],Toxicity (EC50) (HEK293),further results
"OC(Cn1cncn1)(Cn1cncn1)c1ccc(F)cc1F [Fluconazole, reference compound]",–,–,–,–,–,–,–,–,–,–,–,–,–,–,–,–,–,–,–,–,"MIC (C. parapsilosis; [18]): 0.5 µg/mL; MIC (C. albicans 3281; Candida albicans, 3281): > 128 µg/mL; MIC (C. parapsilosis 3209; [18]): 0.25 µg/mL; MIC (C. albicans 3179; Candida albicans, 3179): > 128 µg/mL; MIC (C. glabrata 8018; Nakaseomyces glabratus, 8018): > 128 µg/mL; MIC (C. krusei 3876; Pichia kudriavzevii, read-out: MIC): 32 µg/mL; MIC (C. tropicalis 8760; Candida tropicalis, 8760): > 128 µg/mL; MIC (C. auris temp probe; Candidozyma auris): > 128 µg/mL"
Nc1c2c([n+](CCCCCCCCCCCC[n+]3c4c(c(N)c5ccccc53)CCCCC4)c3ccccc13)CCCCC2 [Hepta-bola],32 µg/mL,0.5 µg/mL,2 µg/mL,0.5 µg/mL,0.5 µg/mL,1 µg/mL,16 µg/mL,0.25 µg/mL,0.5 µg/mL,0.25 µg/mL,2 µg/mL,16 µg/mL,1 µg/mL,0.5 µg/mL,16 µg/mL,0.25 µg/mL,2 µg/mL,0.25 µg/mL,32 µg/mL,3.5 ± 1.2 µg/mL,"DNA intercalation ([5]; relaxed pBR322 plasmid plus topoisomerase I (Fig. 2A)): to a slightly lesser extent, Hepta-bola are intercalators; relaxation of supercoiled plasmid through the action of topoisomerase I ([5]; supercoiled pBR322 plasmid, bolalipid present (Fig. 2B)): not observed; protection (survival over 72 h) [11]: significantly protective; Toxicity (EC50) (HeLa): 4.5 ± 0.7 µg/mL; MIC [13]: 32 µg/mL; MIC alone Bolalipid (P. aeruginosa PAO1 [14]): 32 µg/mL"
C[C@@H](O)[C@H]1C(=O)N2C(C(=O)O)=C(S[C@@H]3CN[C@H](C(=O)N(C)C)C3)[C@H](C)[C@H]12 [Meropenem],–,–,–,–,–,–,–,–,–,–,–,–,–,–,–,–,–,–,–,–,MIC of antibiotic (P. aeruginosa PAO1 [15]; No bola (Table S1)): > 2 µg/mL; MIC of antibiotic (P. aeruginosa PAO1 [15]; [19]): > 2 µg/mL; MIC of antibiotic (P. aeruginosa NCTC 13437; No bola (Table S1)): > 32 µg/mL; MIC of antibiotic (P. aeruginosa NCTC 13437; [20]): > 32 µg/mL; MIC of antibiotic (P. aeruginosa NCTC 13437; [19]): > 32 µg/mL
Nc1c2c([n+](CCCCCCCC[n+]3c4c(c(N)c5ccccc53)CCCCCC4)c3ccccc13)CCCCCC2 [Octa-C8],32 µg/mL,4 µg/mL,8 µg/mL,2 µg/mL,0.5 µg/mL,4 µg/mL,32 µg/mL,1 µg/mL,2 µg/mL,2 µg/mL,8 µg/mL,32 µg/mL,4 µg/mL,4 µg/mL,32 µg/mL,1 µg/mL,4 µg/mL,1 µg/mL,32 µg/mL,12.9 ± 4.3 µg/mL,MIC (M. smegmatis mc^2 155): 0.19 µg/mL; MIC (M. tuberculosis Bleupan [16]): 0.49 µg/mL; Toxicity (EC50) (HeLa): 27.3 ± 1.3 µg/mL; MIC [13]: 32 µg/mL
CO[C@H]1/C=C/O[C@@]2(C)Oc3c(C)c(O)c4c(O)c(c(/C=N/N5CCN(C)CC5)c(O)c4c3C2=O)NC(=O)/C(C)=C\C=C\[C@H](C)[C@H](O)[C@@H](C)[C@@H](O)[C@@H](C)[C@H](OC(C)=O)[C@@H]1C [Rifampin],–,–,–,–,–,–,–,–,–,–,–,–,–,–,–,–,–,–,–,–,larvae rescued (M. tuberculosis Bleupan [17]): All G. mellonella larvae were rescued; MIC of antibiotic (P. aeruginosa PAO1 [15]; No bola (Table S1)): 16 µg/mL; MIC of antibiotic (P. aeruginosa PAO1 [15]; [20]): 8 to 16 µg/mL; MIC of antibiotic (P. aeruginosa PAO1 [15]; [19]): 16 µg/mL; MIC of antibiotic (P. aeruginosa NCTC 13437; No bola (Table S1)): 16 µg/mL; MIC of antibiotic (P. aeruginosa NCTC 13437; [20]): 8 µg/mL; MIC of antibiotic (P. aeruginosa NCTC 13437; [19]): 16 µg/mL
